Patent publication US20150057351A1, “METHOD FOR TREATING NEUROPATHIC PAIN” (SUCAMPO AG, priority 2013, published 2015)
Marks after values point to notes of the source that are not given here.

Tests used:
[1] = test system: patients who have neuropathic pain around the low back and the lower limbs; assay: Pain intensity by Visual Analogue Scale (VAS), responder rate in patients with neuropathic pain; assay type: in vivo, human
Procedure: (§1) Compound A and corresponding placebo were injected to the patients who have neuropathic pain around the low back and the lower limbs twice daily for 14 days. For the first 3 days, 30 μg of Compound A was administered twice daily (60 μg/day), and then 60 μg of Compound A was administer twice daily (120 μg/day) for the next 11 days.
The intensity of pain was assessed using Visual Analogue Scale (VAS). A VAS is usually a horizontal line, 100 mm in length, anchored by no pain and awful pain at each end. The patient marks on the line the point that they feel represents their perception of their current state. The VAS score is determined by measuring in millimeters from the left hand end of the line to the point that the patient marks. VAS score was measured before (Pre-treatment) and 15-days (Day 15) after start treatment by Compound A or placebo.

[2] = test system: neuropathic pain model rats; assay: Pain threshold in neuropathic pain model rats (L4/L5 nerve root ligation, Dynamic Plantar Aesthesiometer); assay type: in vivo, rat; settings: for Pain threshold, During treatment 2 day: 2-day after start of administration; for Pain threshold, During treatment 4-day: 4-day after start of administration; for Pain threshold, During treatment 7-day: 7-day after start of administration; for Pain threshold, 10-day: 10-day after start of administration; for Pain threshold, Pre-treatment: baseline, before start of administration
[3] = test system: patients who have neuropathic pain around the low back and the lower limbs; assay: Pain-associated QOL by JOABPEQ (social life function) in patients with neuropathic pain; assay type: in vivo, human
Procedure: as §1
The patient's pain-associated quality of life (QOL) was assessed using Japan Orthopedic Association Back Pain Evaluation questionnaires (JOABPEQ). Patients self-evaluated their QOL before (Pre-Treatment), 8 days (Day 8) and 15 days (Day 15) after start treatment by Compound A or placebo.

[4] = 30 μg/kg intravenous twice a day for 7 days
[5] = 1 mg/kg oral twice a day for 7 days

Row | Compound | Rate of responder ([1]; injected twice daily for 14 days: 60 μg/day for 3 days, then 120 μg/day for 11 days, VAS Day 15 vs pre-treatment) | Responder rate compared with placebo treated group ([1]; injected twice daily for 14 days, VAS Day 15) | Pain threshold, During treatment 2 day [2, 4] [g] | Pain threshold, During treatment 4-day [2, 4] [g] | Pain threshold, During treatment 7-day [2, 4] [g] | Pain threshold, 10-day [2, 4] [g] | Pain threshold, Pre-treatment ([2]; 30 μg/kg intravenous twice a day, 4 days after surgery) [g] | Pain threshold of the model paw compared with vehicle-control group ([2]; intravenous, 30 μg/kg twice a day) | Change in score of social life function from pre-treatment, Day 15 ([3]; injected twice daily for 14 days: 60 μg/day for 3 days, then 120 μg/day for 11 days, Day 15, JOABPEQ) | Social life function (JOABPEQ factor) ([3]; injected twice daily for 14 days, vs placebo) | Change in score of social life function from pre-treatment, Day 8 ([3]; injected twice daily: 60 μg/day for 3 days, then 120 μg/day, Day 8, JOABPEQ) | Pain threshold, During treatment 2 day [2, 5] [g] | Pain threshold, During treatment 4-day [2, 5] [g] | Pain threshold, During treatment 7-day [2, 5] [g] | Pain threshold, 10-day [2, 5] [g] | Pain threshold, Pre-treatment ([2]; 1 mg/kg oral twice a day) [g] | Pain threshold of the model paw compared with vehicle-control group ([2]; oral, 1 mg/kg twice a day for 7 days)
1 | CCCCC(F)(F)C(=O)CC[C@H]1CCC(=O)[C@@H]1CCCCCCC(=O)O [Compound A, (−)-7-[(1R,2R)-2-(4,4-difluoro-3-oxooctyl)-5-oxocyclopentyl]heptanoic acid] | 94.4% (N = 18) * | significantly higher | 6.8 ± 0.3 | 7.6 ± 0.3 | 8.1 ± 0.3 | 8.4 | 6.1 ± 0.2 | statistically significantly increased | 3.0 ± 2.8 (N = 20) | significantly improved | 2.7 ± 2.8 (N = 20) ^a | – | – | – | – | – | –
2 | CCCCC(F)(F)C(=O)CC[C@H]1CCC(=O)[C@@H]1CCCC/C=C/C(=O)O [Compound B, (E)-7-[(1R,2R)-2-(4,4-difluoro-3-oxooctyl)-5-oxocyclopentyl]hept-2-enoic acid] | – | – | – | – | – | – | – | – | – | – | – | 7.7 ± 0.3 | 8.2 | 8.6 ± 0.2 | 8.2 ± 0.2 | 6.8 ± 0.2 | statistically significantly increased
